Test results published in patent US20240199651A1, “ANTIBACTERIAL COMPOUNDS” (JANSSEN SCIENCES IRELAND UNLIMITED COMPANY, priority 2021, published 2024).
Where two headings read alike, the source gives them in different places.

Tests used:
[1] = Chemical stability testing (LCMS); type: physicochemical; conditions: 30 µM
Experimental: • Add 3 μl of a 10 mM DMSO stock solution to 1 ml of the following solvents in a 1.5 ml HPLC vial. • DMSO (reference solution) • H2O/Acetonitril 1/1 (assay solution) • 0.1N HCl/Acetonitril 1/1 (assay solution) • Mix well, […] LCMS • Compare the chromatograms of the two assay solutions with the reference solution and report the additional peaks as degradation peaks

[2] = Mitochondrial toxicity (Glu/Gal) assay; type: cell-based; conditions: for Score: mitotoxicity score, Glu/Gal assay; for Δ IC50, glu/IC50, gal: ratio IC50 glu / IC50 gal
[3] = system: Mycobacterium tuberculosis strain EH4.0 expressing green-fluorescent protein (GFP); experiment: microbe, parasite or virus in culture; type: cell-based; conditions: Test 1 (and/or Test 2), M. tuberculosis
[4] = galactose medium (Glu/Gal mitotoxicity assay), read-out: IC50, gal
[5] = glucose medium (Glu/Gal mitotoxicity assay), read-out: IC50, glu

## CCc1nc2cc(N)c(Cl)cn2c1C(=O)NCc1ccc(-c2nc3n(n2)CCN(S(=O)(=O)C(F)(F)F)C3)c(F)c1 [Compound 14]
[1]; 72 h
  chemical stability, % by LCMS: 100%
[1]; 72 h, pH 1.6
  chemical stability, % by LCMS: 100%

## CCc1nc2ncc(C)cn2c1C(=O)NCc1coc(-c2nc3n(n2)CCN(S(=O)(=O)C(F)(F)F)C3)n1 [Compound 72]
[2]; read-out: IC50, gal
  IC50: > 200 µM
[2]; read-out: IC50, glu
  IC50: > 200 µM
[3]; Mycobacterium tuberculosis
  IC50: > 0.501 µM

## CCc1nc2nc(N)c(Cl)cn2c1C(=O)NCc1ccc(-c2nc3n(n2)CCN(S(=O)(=O)C(F)(F)F)C3)c(F)c1 [Compound 12]
[1]; 72 h
  chemical stability, % by LCMS: 96.14%
[1]; 72 h, pH 1.6
  chemical stability, % by LCMS: 97.06%

## CCc1nc2ncc(C)cn2c1C(=O)NC1(c2ccc(-c3nc4n(n3)CCN(S(=O)(=O)C(F)(F)F)C4)cc2)CC1 [Compound 68]
[2]; read-out: IC50, gal
  IC50: > 100 µM
[2]; read-out: IC50, glu
  IC50: > 100 µM
[3]; Mycobacterium tuberculosis
  IC50: > 0.501 µM

## Cc1cnc2nc(C(F)(F)F)c(C(=O)NCc3ccc(-c4cc5n(n4)CCN(S(=O)(=O)C(F)(F)F)C5)cc3)n2c1 [Compound 114]
[2]; [4]
  IC50: > 12.5 µM
[2]; [5]
  IC50: > 12.5 µM
[3]; Mycobacterium tuberculosis
  AC50: 0.0098 µM

## CCc1nc2ncc(C)cn2c1C(=O)NCc1ccc(-c2nn3c(c2OC)CN(S(=O)(=O)C(F)(F)F)CC3)cc1 [Compound 88]
[3]
  AC50: 0.00866 µM

## O=C(NCc1ccc(-c2nc3n(n2)CCN(S(=O)(=O)C(F)(F)F)C3)c(F)c1)c1c(C2CC2)nc2ccccn12 [Compound 123]
[2]; [4]
  IC50: > 100 µM
[2]; [5]
  IC50: > 100 µM
[3]; Mycobacterium tuberculosis
  AC50: 0.018 µM

## CCc1nc2cc(OC)c(Cl)cn2c1C(=O)NCc1ccc(-c2nc3n(n2)CCN(S(=O)(=O)C(F)(F)F)C3)c(F)c1 [Compound 10]
[2]; read-out: IC50, gal
  IC50: > 200 µM
[2]; read-out: IC50, glu
  IC50: > 200 µM
[1]; 72 h
  chemical stability, % by LCMS: 97.03%
[1]; 72 h, pH 1.6
  chemical stability, % by LCMS: 100%

## O=C(NCc1ccc(-c2nc3n(n2)CCN(S(=O)(=O)C(F)(F)F)C3)c(F)c1)c1c(C(F)(F)F)nc2ccccn12 [Compound 6]
[2]
  Score: [x]1
  Δ IC50, glu/IC50, gal: 0.66
[2]; read-out: IC50, gal
  IC50: 134 µM
[2]; read-out: IC50, glu
  IC50: 88.5 µM
[1]; 48 h
  chemical stability, % by LCMS: 100%
[1]; 48 h, pH 1.6
  chemical stability, % by LCMS: 100%

## Cc1cnc2nc(C3CC3)c(C(=O)NCc3ccc(-c4cn5c(n4)CN(S(=O)(=O)C(F)(F)F)CC5)c(F)c3)n2c1 [Compound 112]
[2]; [4]
  IC50: > 100 µM
[2]; [5]
  IC50: > 100 µM
[3]; Mycobacterium tuberculosis
  AC50: 0.0095 µM

## CCc1nc2cc(Cl)c(C)cn2c1C(=O)NCc1ccc(-c2nc3n(n2)CCN(S(=O)(=O)C(F)(F)F)C3)c(F)c1 [Compound 19]
[2]; [4]
  IC50: > 25 µM
[2]; [5]
  IC50: > 25 µM
[3]; Mycobacterium tuberculosis
  IC50: 0.331 µM

## CCc1nc2cc(NC)c(Cl)cn2c1C(=O)NCc1ccc(-c2nc3n(n2)CCN(S(=O)(=O)C(F)(F)F)C3)c(F)c1 [Compound 13]
[2]
  Score: [x]1
  Δ IC50, glu/IC50, gal: 1.25
[2]; read-out: IC50, gal
  IC50: 23.5 µM
[2]; read-out: IC50, glu
  IC50: 29.5 µM
[3]; Mycobacterium tuberculosis
  IC50: > 0.5 µM

## Cc1cnc2nc(C(F)(F)F)c(C(=O)NCc3ccc(-c4nc5n(n4)CCN(S(=O)(=O)C(F)(F)F)C5)cc3)n2c1 [Compound 113]
[2]; [4]
  IC50: > 100 µM
[2]; [5]
  IC50: > 100 µM
[3]; Mycobacterium tuberculosis
  AC50: 0.032 µM

## CCc1nc2ncc(C)cn2c1C(=O)NCc1ccc(-c2nc3n(c2C)CCN(S(=O)(=O)C(F)(F)F)C3)cc1 [Compound 86]
[2]; read-out: IC50, gal
  IC50: > 100 µM
[2]; read-out: IC50, glu
  IC50: > 100 µM
[3]; Mycobacterium tuberculosis
  AC50: 0.03 µM

## CCc1nc2ncc(Cl)cn2c1C(=O)NCc1ccc(-c2nc3n(n2)CCN(S(=O)(=O)C(F)(F)F)C3)c(F)c1 [Compound 4]
[2]; [4]
  IC50: > 100 µM
[2]; [5]
  IC50: > 100 µM
[3]
  pIC50: 7.90

## CCc1nc2ncc(C)cn2c1C(=O)NCc1cccc(-c2cnn3c2CN(S(=O)(=O)C(F)(F)F)CC3)c1 [Compound 92]
[2]
  Score: [x]1
  Δ IC50, glu/IC50, gal: 1.47
[2]; read-out: IC50, gal
  IC50: 133 µM
[2]; read-out: IC50, glu
  IC50: 195 µM
[3]; Mycobacterium tuberculosis
  AC50: > 0.5 µM

## CCc1nc2nc(C)c(Cl)cn2c1C(=O)NCc1ccc(-c2nc3n(n2)CCN(S(=O)(=O)C(F)(F)F)C3)cc1 [Compound 8]
[2]; [4]
  IC50: 41.7 µM
[2]; [5]
  IC50: 51.2 µM
[2]
  Score: [x]1
  Δ IC50, glu/IC50, gal: 1.23
[3]
  pIC50: 7.58

## O=C(NCc1ccc(-c2cc3n(n2)CCN(S(=O)(=O)C(F)(F)F)C3)cc1)c1c(C2CC2)nc2ncc(Cl)cn12 [Compound 104]
[2]; [4]
  IC50: > 50 µM
[2]; [5]
  IC50: > 50 µM
[3]; Mycobacterium tuberculosis
  AC50: 0.11 µM

## O=C(NCc1ccc(-c2nc3n(n2)CCN(S(=O)(=O)C(F)(F)F)C3)cc1)c1c(C2CC2)nc2ncc(Cl)cn12 [Compound 103]
[2]
  Score: [x]0
  Δ IC50, glu/IC50, gal: >1.3
[2]; read-out: IC50, gal
  IC50: 38.6 µM
[2]; read-out: IC50, glu
  IC50: > 50 µM

## CCc1nc2n(c1C(=O)NCc1ccc(-c3nc4n(n3)CCN(S(=O)(=O)C(F)(F)F)C4)cc1)CCCC2 [Compound 31]
[2]; [4]
  IC50: > 200 µM
[2]; [5]
  IC50: > 200 µM

## CCc1nc2ncc(C)cn2c1C(=O)NCc1ccc(C2CN(c3nc4n(n3)CCN(S(=O)(=O)C(F)(F)F)C4)C2)cc1 [Compound 58]
[2]
  Δ IC50, glu/IC50, gal: >3.44
[2]; read-out: IC50, gal
  IC50: 58.2 µM
[2]; read-out: IC50, glu
  IC50: > 200 µM

## CCc1nc2ccc(C)cn2c1C(=O)NCc1ccc(-c2nc3n(n2)CCN(C)C3)cc1 [Compound 56]
[2]; [4]
  IC50: > 200 µM
[2]; [5]
  IC50: > 200 µM

## COCCS(=O)(=O)N1CCn2nc(-c3ccc(CNC(=O)c4c(C5CC5)nc5ncc(C)cn45)cc3)cc2C1 [Compound 109]
[2]; [4]
  IC50: > 50 µM
[2]; [5]
  IC50: > 50 µM

## CCc1nc2ccc(Cl)cn2c1C(=O)NCc1ccc(-c2cn3c(n2)CN(S(=O)(=O)C(F)(F)F)CC3)cc1 [Compound 117]
[2]; [4]
  IC50: > 50 µM
[2]; [5]
  IC50: > 50 µM

## CCc1nc2ncc(Cl)cn2c1C(=O)NCc1ccc(-c2cn3c(n2)CN(S(=O)(=O)C(F)(F)F)CC3)cc1 [Compound 90]
[2]; [4]
  IC50: > 200 µM
[2]; [5]
  IC50: > 200 µM

## CCc1nc2ncc(C)cn2c1C(=O)NCc1ccc(-c2cc3n(n2)CCN(S(=O)(=O)C(F)(F)F)C3)cn1 [Compound 126]
[2]; [4]
  IC50: > 200 µM
[2]; [5]
  IC50: > 200 µM

## CCc1nc2ccc(C(C)C)cn2c1C(=O)NCc1ccc(-c2nc3n(n2)CCN(S(=O)(=O)C(F)(F)F)C3)cc1 [Compound 35]
[2]
  Score: [x]0
  Δ IC50, glu/IC50, gal: >1.25
[2]; read-out: IC50, gal
  IC50: 40.1 µM
[2]; read-out: IC50, glu
  IC50: > 50 µM

## CCc1nc2ncc(C)cn2c1C(=O)NCc1ccc(C2CCN(c3nc4n(n3)CCN(S(=O)(=O)C(F)(F)F)C4)CC2)cc1 [Compound 59]
[2]
  Score: [x]3
  Δ IC50, glu/IC50, gal: >11.38
[2]; read-out: IC50, gal
  IC50: 17.6 µM
[2]; read-out: IC50, glu
  IC50: > 200 µM

## CCc1nc2cc(N)c(Cl)cn2c1C(=O)NCc1cnc(-c2nc3n(n2)CCN(S(=O)(=O)C(F)(F)F)C3)c(F)c1 [Compound 78]
[2]; read-out: IC50, gal
  IC50: > 200 µM
[2]; read-out: IC50, glu
  IC50: > 200 µM

## COCCN1CCn2nc(-c3ccc(CNC(=O)c4c(C5CC5)nc5ncc(C)cn45)cc3)cc2C1 [Compound 101]
[2]; [4]
  IC50: > 200 µM
[2]; [5]
  IC50: > 200 µM

## Cc1cnc2nc(C3CC3)c(C(=O)NCc3cnc(-c4cc5n(n4)CCN(S(=O)(=O)C(F)(F)F)C5)c(F)c3)n2c1 [Compound 125]
[2]; [4]
  IC50: > 200 µM
[2]; [5]
  IC50: > 200 µM

## CCc1nc2ncc(C)cn2c1C(=O)NC(C)(C)c1ccc(-c2nc3n(n2)CCN(S(=O)(=O)C(F)(F)F)C3)cc1 [Compound 83]
[2]
  Score: [x]1
  Δ IC50, glu/IC50, gal: 1.12
[2]; read-out: IC50, gal
  IC50: 127 µM
[2]; read-out: IC50, glu
  IC50: 142 µM

## CCc1nc2sc(C)cn2c1C(=O)NCc1ccc(-c2nc3n(n2)CCN(S(=O)(=O)C(F)(F)F)C3)cc1 [Compound 36]
[2]
  Score: [x]0
  Δ IC50, glu/IC50, gal: >1.26
[2]; read-out: IC50, gal
  IC50: 79.5 µM
[2]; read-out: IC50, glu
  IC50: > 100 µM

## CCc1nc2ccc(C3CC3)cn2c1C(=O)NCc1ccc(-c2nc3n(n2)CCN(S(=O)(=O)C(F)(F)F)C3)cc1 [Compound 27]
[2]
  Δ IC50, glu/IC50, gal: 2.34
[2]; read-out: IC50, gal
  IC50: 44.5 µM
[2]; read-out: IC50, glu
  IC50: 104 µM

## CCc1nc2ncc(C)cn2c1C(=O)NCc1ccc(C2CCN(c3nc4n(n3)CCN(S(=O)(=O)C(F)(F)F)C4)C2)cc1 (stereo not shown) [Compound 69]
[2]
  Score: [x]3
  Δ IC50, glu/IC50, gal: 11.37
[2]; read-out: IC50, gal
  IC50: 15.3 µM
[2]; read-out: IC50, glu
  IC50: 174 µM

## O=C(NCc1ccc(-c2cc3n(n2)CCN(S(=O)(=O)C(F)(F)F)C3)cc1)c1c(C(F)(F)F)nc2ccccn12 [Compound 119]
[2]
  Score: [x]1
  Δ IC50, glu/IC50, gal: >1.54
[2]; read-out: IC50, gal
  IC50: 130 µM
[2]; read-out: IC50, glu
  IC50: > 200 µM
